The values that follow come from patent US10246498B2, “Genetically encoded histone reporter allele constructs” (THE JOHNS HOPKINS UNIVERSITY, priority 2014, dated 2019).

Molecules are shown by their SMILES. “Also recorded” adds a separate entry of the source.

The subject of the assay is genome-wide H3K4me3. The assay is described as follows: ChIP-seq of H3K4me3 in spleen cells of treated mice. Conditions: 10 mg/kg/day, spleen cells of Kmt2d+/βGeo mice. The class given is in vivo, mouse. On the procedure:
Spleens were dissected from eight mice, four from each kmt2d genotype (+/βGeo or +/+) where half of each genotype was treated with AR-42 and half with vehicle only. Spleens were minced and passed through a 40 μm cell strainer to obtain single cell suspensions. 10 million cells were used for each ChIP-seq experiment following the native chromatin immunoprecipitation protocol, as previously described (Gilfillan et al. (2012) BMC Genomics 13:645), using a ChIP-grade antibody against H3K4me3 (9727, Cell Signaling Technology, Beverly, Mass.).
Sequencing was performed using a MiSeq system (Illumina, San Diego, Calif.). 4.8-9.6 million paired-end 26 bp reads were obtained per sample (Table 1; nReads=number of reads, alignRate=fraction aligned to genome; FRIP=fraction of reads in peaks). Reads were aligned to the m. musculus genome, version mm10, using Bowtie 2 (Langmead and Salzberg (2012) Nat. Methods. 9: 357-9). Each sample was examined with regard to alignment rate as well as FRIP (fraction of reads in peaks), a measure of the ChIP efficiency (Table 1). […] For analysis, reads were merged into one meta-sample and peak calling was performed using MACS version 1.4.2 (Zhang et al. (2008) Genome Biol. 9: R137). […] This created a peak by sample matrix of read counts. […] Fold change and overall abundance was calculated as per edgeR. […]

As to `CC(C)[C@H](C(=O)Nc1ccc(C(=O)NO)cc1)c1ccccc1` [AR-42], the “genome-wide deficiency of H3K4me3 (ChIP-seq)” value is “genome-wide increase in H3K4me3; also recorded: overcorrection; also recorded: improved; also recorded: recovered; also recorded: normalized (but somewhat over corrected)”.
